Results reported in patent US11939351B2, “Amorphous mixture comprising a neutral mono- or oligosaccharide and an acidic non-carbohydrate component” (GLYCOM A/S, priority 2017, dated 2024).
Read-outs that look alike come from different tables or passages of the source.

Key:
[1] = assay type: physicochemical
Source text: This means that an amorphous 2′-FL according to the present invention, the pH of the 5 w/w % aqueous solution of which is around 3.5-4.5, has a slightly shorter shelf-life than that for an amorphous 2′-FL having a pH of 4.5-5.8. […] In this regard it can be concluded that a fucosylated neutral HMO other than 2′-FL is hydrolytically as stable as a non-fucosylated neutral HMO.

[2] = Forced storage stability of 2′-FL and DFL mixture samples at 60° C. and 80° C., analysed by HPAEC (Example 2); assay type: physicochemical
Protocol: One gram of each sample, separately, was put into a 4 ml glass vial and closed with screw lid containing teflon […]. The 8-week storage sample was put into a 60° C. oven, followed by the 4-week and the 2-week samples 4 and 6 weeks later, respectively), so the incubation of all samples ended in the same time. Similar pattern of experimental design was followed with the samples to be measured at 80° C. (4-week, 2-week and 1-week samples). The samples were kept in a freezer until they were put into the oven at a given time. Standards were kept in a freezer until analysis. The stability samples and the standards were analysed by HPAEC.

[3] = in the acidic samples (pH = 4.5)
[4] = in the neutral sample (pH = 7.0)

Row | SMILES | hydrolysis to fucose and lactose ([1]; at a pH around 4.0-4.5) | hydrolysis to fucose and lactose ([1]; at around a pH of 3.5) | preferred pH range in which no substantial hydrolysis and rearrangement occur ([2]; estimated from the Example 2 data) | hydrolysis (into fucose and lactose) [2, 3] | hydrolysis (into fucose and lactose) [2, 4] | hydrolytic stability [1]
1 | C[C@@H]1O[C@@H](O[C@H]2[C@H](O[C@H]3[C@H](O)[C@@H](O)C(O)O[C@@H]3CO)O[C@H](CO)[C@H](O)[C@@H]2O)[C@@H](O)[C@H](O)[C@@H]1O (some centres unmarked) [2′-FL, 2′-fucosyllactose] | still detectable | low degree of hydrolysis | 5.2-5.8 | slight hydrolysis | did not occur | –
2 | C[C@@H]1O[C@@H](O[C@H]2[C@H](O[C@H]3[C@H](O[C@@H]4O[C@@H](C)[C@@H](O)[C@@H](O)[C@@H]4O)[C@@H](O)C(O)O[C@@H]3CO)O[C@H](CO)[C@H](O)[C@@H]2O)[C@@H](O)[C@H](O)[C@@H]1O (some centres unmarked) [DFL, difucosyllactose] | – | – | – | did not undergo hydrolysis | did not undergo hydrolysis | hydrolytically stabile
